Measured values published in patent US10167507B2, “Metabolic diseases-related odorant receptor genes and use thereof” (INDUSTRY-ACADEMIC COOPERATION FOUNDATION, YONSEI UNIVERSITY, priority 2010, dated 2019).

Key:
[1] = system: olfactory receptors in visceral fat tissue; experiment: OligoDNA microarray, visceral fat tissue of HFD mice fed odor components; type: in vivo, mouse
Experimental: DNA microarry analysis using RNAs of visceral fat and liver tissue was conducted by GENOCHECK (CO., LTD.). RNA samples were pooled from 10 mice in each experimental group and subjected to microarray experiments in triplicate for the test of reproducibility. NimbleGen Mouse Whole Oligo 12-plex chip used in this experiment was prepared by triplicating 42,576 genes using Mouse Genome Build 8 as database. In NimbleGen mouse Whole Oligo 12-plex chip, 137,090 spots excluded control group gene were spotted by 16 μm×16 μm size in 17.4 mm×13 mm size. 42,576 oligo included 137,145 genes which are known their functions and 5,431 transcripts and EST sequences which are unknown their functions. 10-50 μg of total RNA was added in oligo-dT primer, reverse transcriptase, dNTP, Cy3-dUTP and Cy5-dUTP, and reverse-transcripted according to the kit manufacturer's recommendations. The resultant was purified using cartridge, dried and dissolved in hybridization buffer solution (30 μL). The microarray was placed in hybridization cassette, heated at 95-100° C. for 5 min, mixed independently to each of RNA labeled with Cy3 and Cy5, and hybridized at 45° C. for 18 hrs. The slide was washed twice in solution containing 1×SSC and 0.1% SDS for 5 min, washed in 1×SSC for 5 min and dried to analyze.

[2] = system: olfactory receptors in liver tissue; experiment: OligoDNA microarray, liver tissue of HFD mice fed odor components; type: in vivo, mouse
From the text: (§1) The obesity-inducing control diet used in the test was high-fat diet (HFD: 40% fat calorie, 17 g lard+3% corn oil/100 g diet). Diets supplemented with an odor component had the same composition as HFD, except that each of various types of odor components (indol-3-carbinol, oleuropein, cedryl acetate, α-cedrene and piperine) having anti-obesity efficacy was contained in 0.02-0.05% concentration. Indo)-3-carbinol, oleuropein, cedryl acetate, a-cedrene and piperine were purchased from Sigma-Aldrich.
(§2) After adding Trizol agent to visceral fat or liver tissue, the mixture was homogenized and centrifuged at 12,000×g for 10 min at 4° C. The supernatant was transferred to a new tube to remove fat layer. Then, 200 μl of chloroform was added to the tube, followed by vortexing. The same procedure was repeated twice and then the supernatant was transferred to a new tube, followed by addition of isopropanol and the supernatant at 1:1 ratio. The mixture was vigorously shaken 10 times and then incubated for 10 min at room temperature, followed by centrifugation at 12,000×g for 10 min at 4° C. to remove the supernatant. After adding 1 mL of 70% ethanol to the remaining pellet, it was centrifuged at 7,500×g for 5 min at 4° C. After removing the ethanol, the RNA pellet contained in the tube was dried for 5 min at 4° C. and dissolved in nuclease-free water. The RNA sample concentration was measured at a wavelength of 260 nm and 280 nm using a UV/VIS spectrophotometer (Beckman coulter, DU730) and the integrity of RNA sample was verified by agarose gel electrophoresis.
(§3) DNA microarry analysis using RNAs of visceral fat and liver tissue was conducted by GENOCHECK (CO., LTD.). RNA samples were pooled from 10 mice in each experimental group and subjected to microarray experiments in triplicate for the test of reproducibility. NimbleGen Mouse Whole Oligo 12-plex chip used in this experiment was prepared by triplicating 42,576 genes using Mouse Genome Build 8 as database. In NimbleGen mouse Whole Oligo 12-plex chip, 137,090 spots excluded control group gene were spotted by 16 μm×16 μm size in 17.4 mm×13 mm size. 42,576 oligo included […] genes which are known their functions and 5,431 transcripts and EST sequences which are unknown their functions. 10-50 μg of total RNA was added in oligo-dT primer, reverse transcriptase, dNTP, Cy3-dUTP and Cy5-dUTP, and reverse-transcripted according to the kit manufacturer's recommendations. The resultant was purified using cartridge, dried and dissolved in hybridization buffer solution (30 μL). The microarray was placed in hybridization cassette, heated at 95-100° C. for 5 min, mixed independently to each of RNA labeled with Cy3 and Cy5, and hybridized at 45° C. for 18 hrs. The slide was washed twice in solution containing 1×SSC and 0.1% SDS for 5 min, washed in 1×SSC for 5 min and dried to analyze.
(§4) The profile for olfactory receptors in which the expression was regulated by more than 2-fold change due to intake of odor components at each tissue was shown in Tables 5. As a result, it was determined that various types of odor components having anti-obesity efficacy regulated a plurality of olfactory receptors in peripheral tissues.

[3] = system: olfactory receptors in visceral fat and liver tissues; experiment: OligoDNA microarray, visceral fat and liver tissues of HFD mice fed odor components (tissue not separated in text); type: in vivo; settings: supplemented to mouse fed high-fat diet for 10 weeks
From the text: as §1, §2, §3, §4

[4] = system: obesity and metabolic diseases-related genes in visceral fat tissue; experiment: RT-PCR of obesity and metabolic diseases-related genes, visceral fat tissue; type: in vivo, mouse; settings: odor component-supplemented group to the HFD control group
Experimental: (§5) After adding 1 mL of Trizol agent (Invitrogen, USA) per 0.1 g of visceral fat or liver tissues, the mixture was homogenized and centrifuged at 12,000×g for 10 min at 4° C. The supernatant was transferred to a new tube and 200 μl of chloroform was added to the tube, followed by vortexing. The same procedure was repeated twice and then the supernatant was transferred to a new tube, followed by addition of isopropanol and the supernatant at 1:1 ratio. The mixture was vigorously shaken 10 times and then incubated for 10 min at room temperature, followed by centrifugation at 12,000×g for 10 min at 4° C. to remove the supernatant. After adding 1 mL of 70% ethanol to the remaining pellet, it was centrifuged at 7,500×g for 5 min at 4° C. After removing the ethanol, the RNA pellet contained in the tube was dried for 5 min at 4° C. and dissolved in nuclease-free water. The RNA sample concentration was measured at a wavelength of 260 nm and 280 nm using a UV/VIS spectrophotometer (Beckman coulter, DU730) and the integrity of RNA sample was verified by agarose gel electrophoresis. The RNA sample obtained from the visceral fat or liver tissues was trasnscribed using oligo dT primer and reverse transcriptase (GIBCO BRL, Gaithersburg, Md., USA) to synthesize cDNA. The PCR amplification was performed using the cDNA as templates and primers complementary to cDNA [NT] flanking sequence. 1 μl of the amplified products were resolved on agarose gel electrophoresis to verify DNA band.

[5] = system: obesity and metabolic diseases-related genes in liver tissue; experiment: RT-PCR of obesity and metabolic diseases-related genes, liver tissue; type: in vivo, mouse; settings: odor component-supplemented group to the HFD control group
Experimental: as §5

[6] = system: HSL (hormone sensitive lipase); experiment: Western blotting, protein phosphorylation of HSL; type: in vivo, mouse; settings: for HSL phosphorylation, increase (change rate): odor component-supplemented group to the HFD control group
Experimental: (§6) A certain amount of visceral fat or liver tissues in mortar was homogenized with liquid nitrogen and cell lysis buffer. The mixture was transferred to a new tube, followed by vortexing. After centrifugation at 13,000×g for 20 min at 4° C., the middle layer of the tube was obtained and proteins were quantified by Bradford method. 50 μg of protein was electrophorized to SDS polyacrylamide gel, followed by electroblotting to PVDF hyper film. The protein was reacted using an appropriate antibody for the protein and detected by ECL, whereby insulin resistance, adipocyte differentiation, lipid metabolism or energy consumption-related mechanism of phytochemical components was investigated in the protein level.
(§7) In order to verify this, protein phosphorylations of HSL (hormone sensitive lipase), CREB (cAMP-responsive element binding protein) and AKT (v-akt murine thymoma viral oncogene) were evaluated by western blotting analysis.

[7] = system: CREB (cAMP-responsive element binding protein); experiment: Western blotting, protein phosphorylation of CREB; type: in vivo, mouse; settings: for CREB phosphorylation, increase (change rate): odor component-supplemented group to the HFD control group
Experimental: as §6, §7

[8] = system: AKT (v-akt murine thymoma viral oncogene); experiment: Western blotting, protein phosphorylation of AKT; type: in vivo, mouse; settings: for AKT phosphorylation, increase (change rate): odor component-supplemented group to the HFD control group
Experimental: as §6, §7

[9] = supplemented to HFD-fed mouse 10 weeks
[10] = western blotting, compared to the HFD control group

OCc1c[nH]c2ccccc12 [indol-3-carbinol]
expression of olfactory receptor 380 [1]: increased
expression of olfactory receptor 1165 [1]: decreased
Olfr380 expression fold change to HFD group [1, 9]: 2.2
Olfr1165 expression fold change to HFD group [1, 9]: 0.39
Olfr1462 expression fold change to HFD group [1, 9]: 2.26
expression of olfactory receptor 1045 [2]: decreased
Olfr290 expression fold change to HFD group [2, 9]: 2.11
Olfr1045 expression fold change to HFD group [2, 9]: 0.45
expression of olfactory receptor 16 decreased [3]: more than 2 fold change
expression of olfactory receptor 116 increased [3]: more than 2 fold change
expression of olfactory receptor 178 increased [3]: more than 2 fold change
expression of olfactory receptor 196 decreased [3]: more than 2 fold change
expression of olfactory receptor 259 decreased [3]: more than 2 fold change
expression of olfactory receptor 290 increased [3]: more than 2 fold change
expression of olfactory receptor 380 increased [3]: more than 2 fold change
expression of olfactory receptor 466 decreased [3]: more than 2 fold change
expression of olfactory receptor 686 decreased [3]: more than 2 fold change
expression of olfactory receptor 909 increased [3]: more than 2 fold change
expression of olfactory receptor 972 decreased [3]: more than 2 fold change
expression of olfactory receptor 1045 decreased [3]: more than 2 fold change
expression of olfactory receptor 1093 decreased [3]: more than 2 fold change
expression of olfactory receptor 1153 increased [3]: more than 2 fold change
expression of olfactory receptor 1165 decreased [3]: more than 2 fold change
expression of olfactory receptor 1216 decreased [3]: more than 2 fold change
expression of olfactory receptor 1329 decreased [3]: more than 2 fold change
expression of olfactory receptor 1337 decreased [3]: more than 2 fold change
expression of olfactory receptor 1462 increased [3]: more than 2 fold change
C/EBPα gene expression, decrease (change rate) [4]: 11% decrease^a)
CPT1 gene expression, increase (change rate) [4]: 25% increase^
FAS gene expression, decrease (change rate) [4]: 56% decrease
IL-6 gene expression, decrease (change rate) [4]: 76% decrease
PGC1α gene expression, increase (change rate) [4]: 120% increase ^
PPARγ2 gene expression, decrease (change rate) [4]: 20% decrease
SIRT1 gene expression, increase (change rate) [4]: 45% increase^
TNFα gene expression, decrease (change rate) [4]: 23% decrease
UCP1 gene expression, increase (change rate) [4]: 210% increase ^
UCP3 gene expression, increase (change rate) [4]: 72% increase^
aP2 gene expression, decrease (change rate) [4]: 44% decrease
C/EBPα gene expression, decrease (change rate) [5]: 25% decrease
CPT1 gene expression, increase (change rate) [5]: 33% increase^
FAS gene expression, decrease (change rate) [5]: 27% decrease
IL-6 gene expression, decrease (change rate) [5]: 45% decrease
PPARγ2 gene expression, decrease (change rate) [5]: 36% decrease
TNFα gene expression, decrease (change rate) [5]: 33% decrease
aP2 gene expression, decrease (change rate) [5]: 29% decrease
HSL phosphorylation, increase (change rate) [6]: 31% increase ^a)
phosphorylation of HSL [6, 10]: significantly increased
CREB phosphorylation, increase (change rate) [7]: 45% increase
phosphorylation of CREB [7, 10]: significantly increased
AKT phosphorylation, increase (change rate) [8]: 40% increase
phosphorylation of AKT [8, 10]: significantly increased

O=C(/C=C/C=C/c1ccc2c(c1)OCO2)N1CCCCC1 [piperine]
Olfr38 expression fold change to HFD group [2, 9]: 3.93
Olfr77 expression fold change to HFD group [2, 9]: 0.42
Olfr520 expression fold change to HFD group [2, 9]: 2.24
Olfr878 expression fold change to HFD group [2, 9]: 5.56
Olfr1462 expression fold change to HFD group [2, 9]: 0.49
expression of olfactory receptor 38 increased [3]: more than 2 fold change
expression of olfactory receptor 77 decreased [3]: more than 2 fold change
expression of olfactory receptor 520 increased [3]: more than 2 fold change
expression of olfactory receptor 878 increased [3]: more than 2 fold change
expression of olfactory receptor 1462 decreased [3]: more than 2 fold change
C/EBPα gene expression, decrease (change rate) [4]: 35% decrease
CPT1 gene expression, increase (change rate) [4]: 75% increase^
FAS gene expression, decrease (change rate) [4]: 52% decrease
IL-6 gene expression, decrease (change rate) [4]: 83% decrease
PGC1α gene expression, increase (change rate) [4]: 324% increase ^
PPARγ2 gene expression, decrease (change rate) [4]: 30% decrease
SIRT1 gene expression, increase (change rate) [4]: 36% increase^
TNFα gene expression, decrease (change rate) [4]: 75% decrease
UCP1 gene expression, increase (change rate) [4]: 905% increase ^
UCP3 gene expression, increase (change rate) [4]: 75% increase^
aP2 gene expression, decrease (change rate) [4]: 60% decrease
C/EBPα gene expression, decrease (change rate) [5]: 8% decrease
CPT1 gene expression, increase (change rate) [5]: 44% increase^
FAS gene expression, decrease (change rate) [5]: 67% decrease
IL-6 gene expression, decrease (change rate) [5]: 71% decrease
PPARγ2 gene expression, decrease (change rate) [5]: 44% decrease
TNFα gene expression, decrease (change rate) [5]: 60% decrease
aP2 gene expression, decrease (change rate) [5]: 55% decrease
HSL phosphorylation, increase (change rate) [6]: 45% increase
CREB phosphorylation, increase (change rate) [7]: 29% increase
AKT phosphorylation, increase (change rate) [8]: 47% increase
